Assay results published in PubChem BioAssay AID720665 (NMMLSC, 2013).
Results filed as inconclusive are left out. Calls of active or inactive are those of the source.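 Rule for the calls: active = inhibition of the calcium rise above 50%; inconclusive = dimming of resting cell dye signal by over 25%; inactive = inhibition below 50%.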

System: TALL-104 thapsigargin calcium, Fura Red flow cytometry
Test: blockers of intracellular Ca signaling in TALL-104 – Fura Red, TALL-104 cells, CherryPick01, mechanism study for lytic granule exocytosis inhibitor project (AID 720665)
Details: active compounds read high; dose or concentration not given here

Compound	inhibition
Fc1ccc(/C=C\c2nccc3c2[nH]c2ccccc23)cc1	37.7% (inactive)
O=C(CN1C(=O)/C(=C\c2cccc(Br)c2)Oc2ccccc21)NCCCN1CCOCC1	1% (inactive)
